From PMC6774960, “Design, synthesis and biological evaluation of a series of new resveratrol analogues as potential anti-cancer agents” (Royal Society Open Science, 2019)

Key:
Type in all cases: cell-based, human
A549 cells = assay: MTT anti-proliferation assay, A549; settings: average of three determinations
Procedure: The 22 synthesized resveratrol compounds were evaluated for anti-proliferative activities against three human cancer cell lines, including HepG2, A549 and HeLa cells, using 3-[4,5-dimethylthiazol-2-yl]-2,5 diphenyl tetrazolium bromide (MTT) assays. Paclitaxel, a well-known tubulin inhibitor, was used as a positive control. […] Therefore, the inhibitory activity of the compounds depended not only on the 2-position substitution of acrylic acid, but also on the 3-position substitution of acrylic acid.
(§1) The anti-proliferative and cytotoxicity activity was determined using MTT assay. Human cervical carcinoma HeLa cells, human hepatocellular carcinoma HepG2 cells, human lung carcinoma A549 cells were representative in the anti-proliferation assay, which were obtained from the Shanghai Institute of Cell Biology (Shanghai, China). Normal African green monkey kidney Vero cells were a gift from Dr Xiumiao He at Guangxi University for Nationalities. Normal human hepatocytes LO2 cells were a gift from Dr Xing Lin at Guangxi Medical University. The HepG2, Hela, LO2 and Vero cells were cultured in Dulbecco's modified Eagle's medium (DMEM, Gibco) and the A549 cells were cultured in RPMI1640 (Gibco), both media were supplemented with 10% fetal calf serum and antibiotics (100 IU ml^−1 penicillin, 100 IU ml^−1 streptomycin; Amresco).
(§2) Cells were seeded in 96-well microtiter plates at a density of 1 × 10^4 cells well^−1 and incubated with different concentrations of compound (6.25, 12.50, 25.00, 50.00 to 100.00 µM), cisplatin and paclitaxel in RPMI-1640 or DMEM at 37°C with 5% CO2. After 24 h, cell morphology was observed using a light microscope, and then 20 µl of MTT solution (5 mg ml^−1) was added to the well and incubated for 4 h, then cell survival was determined by measuring the optical density (OD) absorbance at a wavelength of 570 nm using an ELISA microplate reader. The inhibition rate (IR) following each compound treatment was determined by the following equation: IR (%) = (1 − ODexp/ODcon) × 100%, where ODexp and ODcon are the OD of the treated and untreated cells, respectively. Cisplatin and paclitaxel were used as positive control drugs.

HepG2 cells [1] = assay: Apoptosis analysis, Annexin V-FITC/PI flow cytometry; settings: 24 h
Procedure: To investigate the effect of compound r on the apoptosis of HepG2 cells, cells were treated with different concentrations of compound r (0, 5, 15 and 45 µM) for 24 h and apoptosis was detected by flow cytometry analysis.
Figure 4. Effect of compound r on the apoptosis in HepG2 cells. Analysis of compound r induced apoptosis in HepG2 cells. The HepG2 cells were treated with 0, 5, 15 or 45 µM by flow cytometry. Cells were stained using propidium iodide (IP) and fluorescein isothiocyanate (FITC). The data manifested the percentage of early apoptotic cells (lower right) or late apoptosis and cell death (upper right) in each quadrant. TEXT PRINTED IN THE PICTURE: control: 7.22% (20 μM); 51.10% (20 μM); 18.67% (20 μM); 23.01% (20 μM) | compound r: 10.95% (low (5 μM)); 22.17% (low (5 μM)); 45.61% (low (5 μM)); 21.27% (low (5 μM)); 10.26% (middle (15 μM)); 18.51% (middle (15 μM)); 33.78% (middle (15 μM)); 37.45% (middle (15 μM)); 7.78% (high (45 μM)); 32.94% (high (45 μM)); 28.71% (high (45 μM)); 30.57% (high (45 μM)) DOUBTS OF THE COPYIST ABOUT THIS PICTURE: The quadrant percentages have no printed measure. For each plot they are listed in the order upper left, upper right, lower left, lower right (axes PI vs annexin V FITC). / The blank (0 μM) plot prints 0.00%, 0.01%, 99.91% (faint, partly hidden by dots, uncertain) and 0.08%. It is left out because no substance is present. / control (20 μM): 18.67% and 23.01% are partly overlaid by dots, so the digits are not fully certain. / compound r, low (5 μM): 21.27% is partly overlaid by dots; the first digit could be 2 or 3. 45.61% is in small print. / compound r, middle (15 μM): 33.78% and 37.45% are in small print, so 3/8 are not fully certain. / compound r, high (45 μM): 30.57% is partly overlaid by dots, and 28.71% is in small print. / The label 'compound r' is printed only on the axis of the bar chart. The scatter plots themselves are labelled only low, middle and high.
HepG2 cells seeded in 6-well plates were treated with compound r (0, 5, 15, 45 µM) or cisplatin (20 µM) for 24 h. […] The stained cells were detected via a flow cytometer.

[2] = MTT cytotoxicity test, LO2; settings: human, LO2 cells (normal human hepatocytes), average of three determinations
Procedure: Vero cells are non-tumorigenic cell lines and are important raw materials as the research and production of biological products. Vero cells show low tumorigenicity and had been approved for use in the production of human virus vaccines. Thus, Vero cells were chosen as a control for cytotoxicity. All compounds were evaluated for their cell toxicity against Vero and normal human hepatocytes cells line (LO2) using MTT assays.
as §1, §2

HepG2 cells [3] = assay: Morphologic observation by light microscope; settings: HepG2, 15 and 45 µM, 24 h
Procedure: Morphological observations can directly reflect the effects of drugs on cells. HepG2 cells were cultured with increasing concentrations of compound r (0, 5, 15 and 45 µM) for 24 h and observed using a light microscope. The cell morphology was clearly altered with the increase in drug concentration (figure 2).
Figure 2. Effect of compound r on the microscopic examination of HepG2 cells. Morphology of HepG2 treated with compound r (0, 5, 15 and 45 µM) and cisplatin (20 µM) for 24 h. Light microscopy photographs, with 40× objective.
as §2

## COc1ccc(C(=Cc2cc(C(F)(F)F)ccc2Cl)C(=O)O)cc1 [compound r, 3-(2-chloro-5-(trifluoromethyl)phenyl)-2-(4-methoxyphenyl) acrylic acid]
A549 cells; 24 h
  IC50: 3.8 ± 0.3 µM
A549 cells; Homo sapiens, A549, 24 h
  IC50: 3.77 µM
HepG2 cells [1]; HepG2, 5 µM
  apoptotic cell population: 43.44%
HepG2 cells [1]; HepG2, 15 µM
  apoptotic cell population: 55.96%
HepG2 cells [1]; HepG2, 45 µM
  apoptotic cell population: 63.51%
[2]
  CC50 at 24 h: > 100 µM
HepG2 cells [3]
  cell morphology: shrinkage, rounding and detachment from the plate surface
